Reference: US20220056037A1 (SPV THERAPEUTICS INC., priority 2018, published 2022)
Read-outs that look alike come from different tables or passages of the source.

What was measured:
Experiment in all cases: Inhibition assay, microfluidic LabChip (Nanosyn)
Type in all cases: biochemical
[1] = molecular target: CDK1/B (Homo sapiens, UniProt P06493); details: Table 3a
Experimental: (§1) The reaction was terminated by the addition of EDTA. The plates were analyzed using a Caliper LabChip 3000.
(§2) Additional inhibition assays were performed as described above.

[2] = molecular target: T1, CDK2-CYCLINA (Homo sapiens, UniProt P24941);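 note: values are IC50 from a concentration-response series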
T1 construct: purchased Millipore
Experimental: as §1, §2

[3] = molecular target: T2, CDK4-CYCLIND1 (Homo sapiens, UniProt P11802); details: read-out: CDK4 CyclinD1 IC50
T2 construct: purchased Invitrogen
Experimental: as §1, §2

[4] = molecular target: CDK7 CyclinH (Homo sapiens, UniProt P50613);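 note: values are IC50 from a concentration-response series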
Experimental: as §1, §2

[5] = molecular target: T3, CDK9-CYCLINT1 (Homo sapiens, UniProt P50750);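 note: values are IC50 from a concentration-response series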
T3 construct: purchased Carna
Experimental: as §1, §2

[6] = molecular target: T4, CDK6-CYCLIND3 (Homo sapiens, UniProt Q00534); details: read-out: CDK6 CyclinD3 IC50
T4 construct: purchased Carna
Experimental: as §1, §2

Sequence of CDK1/B (P06493 whole entry): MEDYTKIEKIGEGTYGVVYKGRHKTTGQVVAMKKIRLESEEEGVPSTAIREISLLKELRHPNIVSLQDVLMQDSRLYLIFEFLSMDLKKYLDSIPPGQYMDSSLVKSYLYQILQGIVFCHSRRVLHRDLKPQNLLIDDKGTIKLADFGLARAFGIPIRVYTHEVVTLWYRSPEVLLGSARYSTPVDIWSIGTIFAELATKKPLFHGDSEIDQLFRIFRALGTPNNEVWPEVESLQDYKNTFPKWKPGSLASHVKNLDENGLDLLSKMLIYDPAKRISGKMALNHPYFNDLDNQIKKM
Sequence of CDK1/B (P14635 whole entry partner): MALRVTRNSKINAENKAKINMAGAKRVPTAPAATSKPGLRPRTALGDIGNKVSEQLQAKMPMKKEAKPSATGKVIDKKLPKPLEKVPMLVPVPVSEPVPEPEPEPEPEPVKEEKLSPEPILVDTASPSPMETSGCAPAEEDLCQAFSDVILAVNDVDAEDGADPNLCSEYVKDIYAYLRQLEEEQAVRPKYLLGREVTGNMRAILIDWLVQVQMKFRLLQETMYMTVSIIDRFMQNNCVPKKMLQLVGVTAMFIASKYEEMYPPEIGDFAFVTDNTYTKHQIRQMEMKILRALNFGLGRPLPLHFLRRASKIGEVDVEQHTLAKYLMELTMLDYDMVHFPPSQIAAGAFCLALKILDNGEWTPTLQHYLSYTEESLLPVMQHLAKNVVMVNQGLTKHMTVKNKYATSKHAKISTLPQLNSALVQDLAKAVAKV
T4 sequence (Q00534 whole entry): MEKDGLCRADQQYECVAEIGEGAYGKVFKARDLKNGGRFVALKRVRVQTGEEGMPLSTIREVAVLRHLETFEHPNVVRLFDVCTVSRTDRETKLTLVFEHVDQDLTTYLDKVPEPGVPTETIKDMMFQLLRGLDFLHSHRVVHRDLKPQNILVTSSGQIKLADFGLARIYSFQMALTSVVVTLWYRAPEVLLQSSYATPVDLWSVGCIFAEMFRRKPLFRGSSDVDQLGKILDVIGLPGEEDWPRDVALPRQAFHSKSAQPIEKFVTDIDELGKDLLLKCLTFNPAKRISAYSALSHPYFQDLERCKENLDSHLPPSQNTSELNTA
T4 sequence (P30281 whole entry partner): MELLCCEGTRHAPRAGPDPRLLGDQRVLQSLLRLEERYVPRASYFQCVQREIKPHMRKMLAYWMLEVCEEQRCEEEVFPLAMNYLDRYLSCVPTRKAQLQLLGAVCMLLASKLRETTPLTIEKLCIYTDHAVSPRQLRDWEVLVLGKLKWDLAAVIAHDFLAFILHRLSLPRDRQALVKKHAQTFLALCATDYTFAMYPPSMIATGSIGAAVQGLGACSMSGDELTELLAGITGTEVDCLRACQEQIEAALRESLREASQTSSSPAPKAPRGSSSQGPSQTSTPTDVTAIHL
T3 sequence (P50750 whole entry): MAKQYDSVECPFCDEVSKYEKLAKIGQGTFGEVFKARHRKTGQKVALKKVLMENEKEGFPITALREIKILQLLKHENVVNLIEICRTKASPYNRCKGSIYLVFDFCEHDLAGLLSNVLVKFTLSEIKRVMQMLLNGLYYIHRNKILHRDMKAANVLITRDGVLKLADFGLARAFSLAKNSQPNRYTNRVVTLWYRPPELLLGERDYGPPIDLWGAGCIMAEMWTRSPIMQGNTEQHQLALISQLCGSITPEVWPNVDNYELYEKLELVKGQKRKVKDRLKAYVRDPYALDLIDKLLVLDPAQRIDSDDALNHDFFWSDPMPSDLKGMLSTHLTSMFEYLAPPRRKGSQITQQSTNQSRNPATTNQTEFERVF
T3 sequence (O60563 whole entry partner): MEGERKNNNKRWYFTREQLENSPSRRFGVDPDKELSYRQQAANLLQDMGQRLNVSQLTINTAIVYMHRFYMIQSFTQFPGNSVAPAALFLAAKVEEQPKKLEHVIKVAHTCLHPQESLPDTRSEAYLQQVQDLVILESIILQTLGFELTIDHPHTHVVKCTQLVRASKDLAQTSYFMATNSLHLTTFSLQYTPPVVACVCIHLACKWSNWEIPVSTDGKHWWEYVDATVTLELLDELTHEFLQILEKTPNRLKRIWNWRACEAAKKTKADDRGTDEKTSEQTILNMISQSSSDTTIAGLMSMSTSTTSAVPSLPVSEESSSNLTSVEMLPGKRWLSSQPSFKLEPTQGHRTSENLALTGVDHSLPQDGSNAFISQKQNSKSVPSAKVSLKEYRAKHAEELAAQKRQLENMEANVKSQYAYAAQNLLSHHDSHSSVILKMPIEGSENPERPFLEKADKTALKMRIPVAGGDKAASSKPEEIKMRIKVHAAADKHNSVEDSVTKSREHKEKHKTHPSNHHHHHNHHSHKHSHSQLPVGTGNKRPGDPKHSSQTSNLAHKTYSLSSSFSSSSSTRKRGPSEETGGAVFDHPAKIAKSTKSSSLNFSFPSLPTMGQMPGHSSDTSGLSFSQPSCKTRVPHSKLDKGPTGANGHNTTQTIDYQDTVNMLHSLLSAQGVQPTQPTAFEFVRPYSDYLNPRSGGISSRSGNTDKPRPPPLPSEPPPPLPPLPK
Sequence of CDK7 CyclinH (P50613 whole entry): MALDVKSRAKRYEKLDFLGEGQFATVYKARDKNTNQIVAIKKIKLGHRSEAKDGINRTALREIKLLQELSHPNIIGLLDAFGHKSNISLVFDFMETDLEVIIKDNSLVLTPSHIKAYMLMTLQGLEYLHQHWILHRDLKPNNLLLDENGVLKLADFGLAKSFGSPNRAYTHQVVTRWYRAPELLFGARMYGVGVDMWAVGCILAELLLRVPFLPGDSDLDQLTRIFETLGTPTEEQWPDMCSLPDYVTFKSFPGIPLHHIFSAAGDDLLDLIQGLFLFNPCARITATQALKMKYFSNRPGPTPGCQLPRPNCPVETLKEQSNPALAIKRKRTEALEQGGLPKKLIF
Sequence of CDK7 CyclinH (P51946 whole entry partner): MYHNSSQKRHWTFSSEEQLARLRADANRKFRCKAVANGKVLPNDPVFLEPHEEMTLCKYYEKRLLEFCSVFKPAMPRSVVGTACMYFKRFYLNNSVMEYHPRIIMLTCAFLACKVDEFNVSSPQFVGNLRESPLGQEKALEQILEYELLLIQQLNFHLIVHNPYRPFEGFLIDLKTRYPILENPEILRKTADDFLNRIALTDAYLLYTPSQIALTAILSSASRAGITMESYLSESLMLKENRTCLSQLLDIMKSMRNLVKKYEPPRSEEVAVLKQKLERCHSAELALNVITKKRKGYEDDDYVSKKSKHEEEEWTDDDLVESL
Sequence of CDK7 CyclinH (P51948 whole entry partner): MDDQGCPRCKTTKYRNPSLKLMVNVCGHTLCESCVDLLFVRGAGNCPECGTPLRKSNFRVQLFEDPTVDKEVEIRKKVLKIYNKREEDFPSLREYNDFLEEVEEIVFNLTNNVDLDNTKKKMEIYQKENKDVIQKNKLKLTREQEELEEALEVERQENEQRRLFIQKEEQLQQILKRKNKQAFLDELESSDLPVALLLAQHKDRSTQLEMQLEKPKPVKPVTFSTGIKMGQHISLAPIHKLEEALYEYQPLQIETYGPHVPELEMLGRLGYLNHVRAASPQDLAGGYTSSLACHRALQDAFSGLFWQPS
T2 sequence (P11802 whole entry): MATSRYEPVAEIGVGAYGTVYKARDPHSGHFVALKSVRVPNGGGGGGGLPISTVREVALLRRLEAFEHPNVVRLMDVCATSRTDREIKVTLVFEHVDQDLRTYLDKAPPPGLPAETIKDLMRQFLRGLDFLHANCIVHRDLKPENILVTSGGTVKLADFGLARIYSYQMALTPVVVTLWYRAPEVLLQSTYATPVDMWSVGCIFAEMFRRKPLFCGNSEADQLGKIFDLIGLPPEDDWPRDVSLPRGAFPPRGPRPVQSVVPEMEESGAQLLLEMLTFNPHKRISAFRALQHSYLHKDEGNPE
T2 sequence (P24385 whole entry partner): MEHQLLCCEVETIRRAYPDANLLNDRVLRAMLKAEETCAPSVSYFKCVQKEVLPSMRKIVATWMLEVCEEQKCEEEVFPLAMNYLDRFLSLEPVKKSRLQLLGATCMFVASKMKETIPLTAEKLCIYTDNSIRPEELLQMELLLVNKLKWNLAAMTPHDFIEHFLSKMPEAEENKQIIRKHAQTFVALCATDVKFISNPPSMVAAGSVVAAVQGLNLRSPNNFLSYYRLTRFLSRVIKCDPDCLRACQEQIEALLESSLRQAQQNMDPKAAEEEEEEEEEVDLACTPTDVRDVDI

Row | SMILES | IC50 [1] [nM] | IC50 ([2]; Table 3a) [nM] | IC50 ([2]; Table 3b) [nM] | IC50 ([3]; Table 3a) [nM] | IC50 ([3]; Table 3b) [nM] | IC50 ([4]; Table 3a) [nM] | IC50 ([4]; Table 3b) [nM] | IC50 ([5]; Table 3a) [nM] | IC50 ([5]; Table 3b) [nM] | IC50 ([6]; Table 3a) [nM] | IC50 ([6]; Table 3b) [nM]
1 | CC(C)N1CCN(c2ccc(Nc3ncc4cc(C(=O)N(C)C)n(C56CC(C5)C6)c4n3)cc2)CC1 (single isomer, unassigned) [Compound A89, 7-(bicyclo[1.1.1]pentan-1-yl)-2-((4-(4-isopropylpiperazin-1-yl)phenyl)amino)-N,N-dimethyl-7H-pyrrolo[2,3-d]pyrimidine-6-carboxamide] | 440 | 400 | 400 | < 3.2 | < 3.2 | 1520 | 1520 | 4.06 | – | – | –
2 | CN1CCC(c2ccc(Nc3ncc4cc(C(=O)N(C)C)n(C56CC(C5)C6)c4n3)cc2)CC1 [Compound A51, 7-(bicyclo[1.1.1]pentan-1-yl)-N,N-dimethyl-2-((4-(1-methylpiperidin-4-yl)phenyl)amino)-7H-pyrrolo[2,3-d]pyrimidine-6-carboxamide] | 453 | 660 | 660 | 4.52 | 4.52 | 2060 | 2060 | 5.46 | – | – | –
3 | CN(C)CCOc1ccc(Nc2ncc3cc(C(=O)N(C)C)n(C45CC(C4)C5)c3n2)cc1 [Compound A60, 7-(bicyclo[1.1.1]pentan-1-yl)-2-((4-(2-(dimethylamino)ethoxy)phenyl)amino)-N,N-dimethyl-7H-pyrrolo[2,3-d]pyrimidine-6-carboxamide] | 955 | 800 | 800 | 7.9 | 7.9 | 3420 | 3420 | < 3.2 | < 3.2 | – | –
4 | CN1CCN(C2CCN(c3ccc(Nc4ncc5cc(C(=O)N(C)C)n(C67CC(C6)C7)c5n4)cc3F)CC2)CC1 [Compound A68, 7-(bicyclo[1.1.1]pentan-1-yl)-2-((3-fluoro-4-(4-(4-methylpiperazin-1-yl)piperidin-1-yl)phenyl)amino)-N,N-dimethyl-7H-pyrrolo[2,3-d]pyrimidine-6-carboxamide] | 562 | 632 | 632 | – | – | 2680 | 2680 | – | – | – | –
5 | CN1CC2(C1)CN(c1ccc(Nc3ncc4cc(C(=O)N(C)C)n(C56CC(C5)C6)c4n3)cc1)C2 [Compound A69, 7-(bicyclo[1.1.1]pentan-1-yl)-N,N-dimethyl-2-((4-(6-methyl-2,6-diazaspiro[3.3]heptan-2-yl)phenyl)amino)-7H-pyrrolo[2,3-d]pyrimidine-6-carboxamide] | 1830 | 1470 | 1470 | 14 | 14 | > 10000 | > 10000 | 5.1 | – | – | –
6 | CN1CC2(C1)CN(c1ccc(Nc3ncc4cc(C(=O)N(C)C)n(C56CC(C5)C6)c4n3)cc1F)C2 [Compound A70, 7-(bicyclo[1.1.1]pentan-1-yl)-2-((3-fluoro-4-(6-methyl-2,6-diazaspiro[3.3]heptan-2-yl)phenyl)amino)-N,N-dimethyl-7H-pyrrolo[2,3-d]pyrimidine-6-carboxamide] | 732 | 631 | 631 | 15.9 | 15.9 | 5010 | 5010 | 4.76 | – | – | –
7 | CN(C)C(=O)c1cc2cnc(Nc3ccc(N4CCN(CCO)CC4)c(F)c3)nc2n1C12CC(C1)C2 [Compound A74, 7-(bicyclo[1.1.1]pentan-1-yl)-2-((3-fluoro-4-(4-(2-hydroxyethyl)piperazin-1-yl)phenyl)amino)-N,N-dimethyl-7H-pyrrolo[2,3-d]pyrimidine-6-carboxamide] | 250 | 245 | 245 | < 3.2 | < 3.2 | 938 | 938 | < 3.2 | < 3.2 | – | –
8 | CN(C)C(=O)c1cc2cnc(Nc3ccc(S(C)(=O)=O)cc3)nc2n1C12CC(C1)C2 [Compound A79, 7-(bicyclo[1.1.1]pentan-1-yl)-N,N-dimethyl-2-((4-(methylsulfonyl)phenyl)amino)-7H-pyrrolo[2,3-d]pyrimidine-6-carboxamide] | 97.1 | 30.2 | 30.2 | 36 | 36 | > 10000 | > 10000 | < 3.2 | < 3.2 | – | –
9 | CN(C)C(=O)c1cc2cnc(Nc3ccc(N4CCNCC4)cn3)nc2n1C12CC(C1)C2 [Compound A86, 7-(bicyclo[1.1.1]pentan-1-yl)-N,N-dimethyl-2-((5-(piperazin-1-yl)pyridin-2-yl)amino)-7H-pyrrolo[2,3-d]pyrimidine-6-carboxamide] | – | 18900 | 18900 | 16 | 16 | 27400 | 27400 | 670 | – | 20.1 | 20.1
10 | CN(C)C(=O)c1cc2cnc(Nc3ccc(C4=CCNCC4)cn3)nc2n1C12CC(C1)C2 [Compound A87, 7-(bicyclo[1.1.1]pentan-1-yl)-N,N-dimethyl-2-((1′,2′,3′,6′-tetrahydro-[3,4′-bipyridin]-6-yl)amino)-7H-pyrrolo[2,3-d]pyrimidine-6-carboxamide] | – | 50000 | 50000 | 25.2 | 25.2 | > 100000 | > 100000 | 553 | – | 20 | 20
11 | CN1CCN(c2ccc(Nc3ncc4cc(C(=O)N(C)C)n(C56CC(C5)C6)c4n3)cc2)CC1 [Compound A88, 7-(bicyclo[1.1.1]pentan-1-yl)-N,N-dimethyl-2-((4-(4-methylpiperazin-1-yl)phenyl)amino)-7H-pyrrolo[2,3-d]pyrimidine-6-carboxamide dihydrogen chloride] | 379 | 354 | 354 | < 3.2 | < 3.2 | 1650 | 1650 | 5.1 | 5.1 | – | –
12 | CC1CN(c2ccc(Nc3ncc4cc(C(=O)N(C)C)n(C56CC(C5)C6)c4n3)cc2)CC(C)N1 (centres unmarked) [Compound A90, 7-(bicyclo[1.1.1]pentan-1-yl)-2-((4-(3,5-dimethylpiperazin-1-yl)phenyl)amino)-N,N-dimethyl-7H-pyrrolo[2,3-d]pyrimidine-6-carboxamide] | 1150 | 913 | 913 | 11.1 | 11.1 | 5610 | 5610 | 9.26 | – | – | –
13 | CC1CCN(c2ccc(Nc3ncc4cc(C(=O)N(C)C)n(C56CC(C5)C6)c4n3)cc2)CC1 [Compound A91, 7-(bicyclo[1.1.1]pentan-1-yl)-N,N-dimethyl-2-((4-(4-methylpiperidin-1-yl)phenyl)amino)-7H-pyrrolo[2,3-d]pyrimidine-6-carboxamide] | 1330 | 690 | 690 | 25.5 | 25.5 | 5790 | 5790 | 7.14 | – | – | –
14 | Cc1cc(Nc2ncc3cc(C(=O)N(C)C)n(C45CC(C4)C5)c3n2)ccc1OCCN(C)C [Compound A92, 7-(bicyclo[1.1.1]pentan-1-yl)-2-((4-(2-(dimethylamino)ethoxy)-3-methylphenyl)amino)-N,N-dimethyl-7H-pyrrolo[2,3-d]pyrimidine-6-carboxamide] | 620 | 713 | 713 | 14.7 | 14.7 | 2650 | 2650 | < 3.2 | < 3.2 | – | –
15 | CN(C)CCOc1ccc(Nc2ncc3cc(C(=O)N(C)C)n(C45CC(C4)C5)c3n2)cc1F [Compound A93, 7-(bicyclo[1.1.1]pentan-1-yl)-2-((4-(2-(dimethylamino)ethoxy)-3-fluorophenyl)amino)-N,N-dimethyl-7H-pyrrolo[2,3-d]pyrimidine-6-carboxamide] | 655 | 742 | 742 | 6.98 | 6.98 | 2140 | 2140 | < 3.2 | < 3.2 | – | –
